The results in this text go back to ChEMBL document CHEMBL3352808, “Anthraquinone-chalcone hybrids: synthesis, preliminary antiproliferative evaluation and DNA-interaction studies” (Eur J Med Chem, 2015).

Molecules are shown by their SMILES. pIC50: −log10 of the molar value. Activity calls are given as the source filed them. The calls are words filed in the database; no cut-off is given here.

A short description of test [1]: Cytotoxicity against human LS174 cells assessed as reduction in cell survival after 72 hrs by MTT assay. The format is functional, cell-based. The note with it: LS174, 72 h. Background: Tetrazolium dyes change colour on reduction, which living cells bring about.
For test [2], the system named is HeLa. In words: Cytotoxicity against human HeLa cells assessed as reduction in cell survival after 72 hrs by MTT assay. The class given is functional, cell-based.
The subject of test [3] is A549. Description: Cytotoxicity against human A549 cells assessed as reduction in cell survival after 72 hrs by MTT assay. The class given is functional, cell-based. The note with it: A549, 72 h.
The next test concerns MRC5. In words: Cytotoxicity against human MRC5 cells assessed as reduction in cell survival after 72 hrs by MTT assay. The format is cell-based. The note with it: MRC5, 72 h.
For test [4], the system named is HeLa. In words: Induction of cell cycle arrest in human HeLa cells assessed as accumulation at G2/M phase at 2 times cytotoxic IC50 level after 24 hrs by propidium iodide staining based flow cytometry (reference value: 24.77%). The class given is functional.
For test [5], the species on record is Bos taurus. Description: Displacement of Hoechst 33258 from calf thymus DNA at 30 to 60 uM by spectroscopy relative to control.
For test [6], the system named is HeLa. In words: Induction of cell cycle arrest in human HeLa cells assessed as accumulation at subG1 phase at cytotoxic IC50 level after 24 hrs by propidium iodide staining based flow cytometry (reference value: 2.53%). The class given is functional. In general terms: Flow cytometry measures light scatter and fluorescence of single cells or particles in a stream.

In test [7] the test system is A549. In words: Induction of apoptosis in human A549 cells assessed as caspase-3 activation at cytotoxic IC50 level after 24 hrs by Western blotting method. The format is functional, cell-based. (A western blot detects proteins with antibodies after separation by electrophoresis.)
Test [8] concerns HeLa. Description: Induction of apoptosis in human HeLa cells assessed as increase in p18 Bax level at cytotoxic IC50 level after 24 hrs by Western blotting method. The format is functional, cell-based.
Test [9] relates to Escherichia coli. Description: Inhibition of Fe(2+)-induced DNA cleavage of Escherichia coli pUC19 at 1:1 compound to iron ratio by agarose gel elctrophoresis method.
Test [10] relates to Escherichia coli. Description: Inhibition of Fe(2+)-induced DNA cleavage of Escherichia coli pUC19 at 1:2 compound to iron ratio by agarose gel elctrophoresis method.
Test [11] relates to Calf thymus DNA. In words: Binding affinity to calf thymus DNA assessed as binding constant at 20 to 60 uM by spectroscopy. The format is nucleic-acid assay. The conditions noted are these: Bos taurus.
Test [12] concerns HeLa. In words: Induction of cell cycle arrest in human HeLa cells assessed as accumulation at G1 phase at 2 times cytotoxic IC50 level after 24 hrs by propidium iodide staining based flow cytometry (reference value: 51.33%). The class given is functional.
In test [13] the test system is Calf thymus DNA. In words: Binding affinity to calf thymus DNA assessed as hyperchromism at 20 to 60 uM by spectroscopy. The class given is nucleic-acid assay. The conditions noted are these: Bos taurus.
In test [14] the test system is HeLa. Description: Induction of cell cycle arrest in human HeLa cells assessed as accumulation at G2/M phase at cytotoxic IC50 level after 24 hrs by propidium iodide staining based flow cytometry (reference value: 24.77%). The format is functional.
Test [15] relates to HeLa. Description: Induction of cell cycle arrest in human HeLa cells assessed as accumulation at S phase at 2 times cytotoxic IC50 level after 24 hrs by propidium iodide staining based flow cytometry (reference value: 14.5%). The class given is functional.
For test [16], the species on record is Bos taurus. Description: Displacement of ethidium bromide from calf thymus DNA at 30 to 60 uM by spectroscopy.
Test [17] has as its system HeLa. Description: Induction of cell cycle arrest in human HeLa cells assessed as accumulation at S phase at cytotoxic IC50 level after 24 hrs by propidium iodide staining based flow cytometry (reference value: 14.5%). The class given is functional.
For test [18], the system named is HeLa. Description: Induction of caspase-3 activation in human HeLa cells assessed as increase in spectrin cleavage product level at cytotoxic IC50 level after 24 hrs by Western blotting method. The format is functional, cell-based.
Test [19] has as its system HeLa. In words: Induction of apoptosis in human HeLa cells assessed as caspase-3 activation at cytotoxic IC50 level after 24 hrs by Western blotting method. The class given is functional, cell-based.
The species entered for test [20] is Bos taurus. In words: Displacement of Hoechst 33258 from calf thymus DNA at 30 to 60 uM by spectroscopy.
Test [21] deals with HeLa. Description: Induction of cell cycle arrest in human HeLa cells assessed as accumulation at subG1 phase at 2 times cytotoxic IC50 level after 24 hrs by propidium iodide staining based flow cytometry (reference value: 2.53%). The class given is functional.
Test [22] concerns A549. In words: Induction of apoptosis in human A549 cells assessed as increase in p18 Bax level at cytotoxic IC50 level after 24 hrs by Western blotting method. The format is functional, cell-based.
The test system of test [23] is Escherichia coli. Description: Induction of DNA cleavage of Escherichia coli pUC19 at 2 mM by agarose gel elctrophoresis method.
Test [24] has as its system HeLa. In words: Induction of cell cycle arrest in human HeLa cells assessed as accumulation at G1 phase at cytotoxic IC50 level after 24 hrs by propidium iodide staining based flow cytometry (reference value: 51.33%). The class given is functional.
For test [25], the system named is A549. Description: Induction of caspase-3 activation in human A549 cells assessed as increase in spectrin cleavage product level at cytotoxic IC50 level after 24 hrs by Western blotting method. The format is functional, cell-based.

Broadly, the pIC50 is −log10 of the IC50, conventionally taken in molar units.

As to `COc1ccc(C(=O)/C=C/c2ccc(/C=C/C(=O)c3cccc4c3C(=O)c3ccccc3C4=O)cc2)cc1`, the pIC50 in test [1] was 4.47; with HeLa [2], 5.30; in the test on A549 [3] it was 4.32; in the test with MRC5, 4.32.
For the compound `Cc1ccc(/C=C/C(=O)c2cccc3c2C(=O)c2ccccc2C3=O)cc1`, the pIC50 was 4.32 in [1], 4.47 with HeLa [2], 4.42 in the test with A549 [3] and 4.30 in the test with MRC5.
Take `O=C(/C=C/c1ccc(/C=C/C(=O)c2cccc3c2C(=O)c2ccccc2C3=O)cc1)c1ccccc1`: the Activity with HeLa [4] worked out at 34.02%; in the test on HeLa [6], 4.66%; in the test with HeLa [12], 36.61%; in the test with HeLa [14], 35.25%; in the test on HeLa [15] it was 23.04%; in the test on HeLa [17] it was 17.06%. Further, the Activity was found to be 4.96% in the test on HeLa [21] and 37.54% in the test on HeLa [24]. In the test listed under Bos taurus [5], this compound displayed an Imax of 52%. Also, the result with A549 [7], in the test on HeLa [8], in the test on Calf thymus DNA [13], in the test on HeLa [18] and with HeLa [19] was Active. The pIC50 in test [1] was 5.34; in the test on HeLa [2] it was 5.62; in the test with A549 [3] it was 4.58; with MRC5 it was 4.47. Further, in the test on Escherichia coli [9], the inhibition entry was “Active”. In addition, the inhibition result with Escherichia coli [10] was “inactive”. The Kb in the test on Calf thymus DNA [11] was found to be 2.65 ×10³ /M. The outcome in the test listed under Bos taurus [16], with A549 [22] and in the test on Escherichia coli [23] was inactive. Further, in the test filed under Bos taurus [20], the inhibition result was “Dose-dependent effect”.
With `Cc1ccc(C(=O)/C=C/c2ccc(/C=C/C(=O)c3cccc4c3C(=O)c3ccccc3C4=O)cc2)cc1`, the pIC50 was 4.65 in test [1], 5.58 in the test on HeLa [2], 4.62 in the test on A549 [3] and 4.41 in the test on MRC5.
Taken in the same sequence, the figures for `Cc1ccccc1/C=C/C(=O)c1cccc2c1C(=O)c1ccccc1C2=O` were 4.34, 4.92, 4.35 and 4.31.
Consider `O=C(/C=C/c1ccc(/C=C/C(=O)c2cccc3c2C(=O)c2ccccc2C3=O)cc1)c1ccccc1[N+](=O)[O-]`, for which the Activity with HeLa [4] is recorded as 34.15%; in the test with HeLa [6] it was 4.65%; with HeLa [12], 35.58%; with HeLa [14], 31.41%; in the test on HeLa [15], 25.39%; in the test on HeLa [17] it was 17.66%. Also, the Activity is given as 5.14% in the test on HeLa [21] and 41.5% in the test on HeLa [24]. Moreover, the Imax in the test filed under Bos taurus [5] was found to be 41%. In addition, the result in the test with A549 [25], with A549 [7], in the test with HeLa [8], in the test on Calf thymus DNA [13], with HeLa [18] and in the test on HeLa [19] was Active. Further, the pIC50 was 5.19 in test [1], 5.56 in the test on HeLa [2], 4.54 in the test with A549 [3] and 4.31 with MRC5. Further, the Kb in the test with Calf thymus DNA [11] came out at 2.51 ×10³ /M. The result in the test filed under Bos taurus [16], in the test with A549 [22] and with Escherichia coli [23] was inactive. Further, the inhibition entry in the test listed under Bos taurus [20] is “Dose-dependent effect”.
As to `COc1cccc(C(=O)/C=C/c2ccc(/C=C/C(=O)c3cccc4c3C(=O)c3ccccc3C4=O)cc2)c1`, the pIC50 in [1] was 4.78; with HeLa [2], 5.56; with A549 [3], 4.51; in the test with MRC5, 4.33.
As to `COc1ccccc1C(=O)/C=C/c1ccc(/C=C/C(=O)c2cccc3c2C(=O)c2ccccc2C3=O)cc1`, the pIC50 is 4.97 in [1], 5.57 with HeLa [2], 4.55 in the test with A549 [3] and 4.36 in the test with MRC5.
The corresponding values for `Cc1cccc(C(=O)/C=C/c2ccc(/C=C/C(=O)c3cccc4c3C(=O)c3ccccc3C4=O)cc2)c1` are 4.93, 5.61, 4.47 and 4.28.
The corresponding values for `Cc1cccc(/C=C/C(=O)c2cccc3c2C(=O)c2ccccc2C3=O)c1` are 4.67, 4.94, 4.48 and 4.47.
The corresponding values for `O=C(/C=C/c1ccccc1)c1cccc2c1C(=O)c1ccccc1C2=O` are 4.50, 4.83, 4.45 and 4.33.
On to `O=C(/C=C/c1ccc(/C=C/C(=O)c2cccc3c2C(=O)c2ccccc2C3=O)cc1)c1ccc(F)cc1`, for which the pIC50 in test [1] is 4.98; with HeLa [2] it was 5.58; with A549 [3] it was 4.44; in the test on MRC5, 4.43.
Taken in the same sequence, the figures for `O=C(/C=C/c1ccc(Cl)cc1)c1cccc2c1C(=O)c1ccccc1C2=O` were 4.33, 4.48, 4.45 and 4.28.
Taken in the same sequence, the figures for `O=C(/C=C/c1ccc(/C=C/C(=O)c2cccc3c2C(=O)c2ccccc2C3=O)cc1)c1ccccc1F` were 4.75, 5.58, 4.50 and 4.50.
As to `Cc1ccccc1C(=O)/C=C/c1ccc(/C=C/C(=O)c2cccc3c2C(=O)c2ccccc2C3=O)cc1`, the Activity in the test with HeLa [4] is listed as 31.12%; in the test on HeLa [6], 5.56%; in the test on HeLa [12] it was 36.75%; in the test on HeLa [14], 32.79%; in the test on HeLa [15] it was 24.44%; in the test on HeLa [17], 17.29%. Also, the Activity in the test on HeLa [21] is 7.89%; in the test on HeLa [24], 38.76%. Moreover, the Imax in the test filed under Bos taurus [5] worked out at 61%. Further, the result in the test on A549 [25], in the test with A549 [7], in the test on HeLa [8], in the test on Calf thymus DNA [13], in the test with HeLa [18] and in the test on HeLa [19] was Active. In addition, the pIC50 was 5.50 in [1], 5.63 in the test on HeLa [2], 4.54 in the test with A549 [3] and 4.38 in the test on MRC5. The Kb with Calf thymus DNA [11] came out at 1.36 ×10³ /M. Moreover, the outcome in the test filed under Bos taurus [16], with A549 [22] and with Escherichia coli [23] was inactive. Moreover, the inhibition result in the test listed under Bos taurus [20] was “Dose-dependent effect”.
